One test concerns the target T1, ATR kinase (Homo sapiens, UniProt Q13535).
T1 construct: purchased Eurofins 14-953
In words: ATR inhibition assay (mobility shift assay, FAM-RAD17 phosphorylation). It counts as biochemical. Conditions: substrate FAM-RAD17, ATR kinase (Eurofins). The protocol:
Assay 1: ATR Inhibition Assay
The assay was developed and conducted at Chempartner. All the test compounds were dissolved in 100% DMSO at concentration of 20 mM, then prepare compounds and conducted the assay as follows:
1) Transfer 80 µl20 mM compound to 40 µl of 100% DMSO in a 96-well plate.
2) Serially dilute the compound by transferring 20 µl to 60 µl of 100% DMSO in the next well and so forth for a total of 10 concentrations.
3) Add 100 µl of 100% DMSO to two empty wells for no compound control and no enzyme control in the same 96-well plate. Mark the plate as source plate.
4) Transfer 40 µl of compound from source plate to a new 384-well plate as the intermediate plate.
5) Transfer 60 nl compounds to assay plate by Echo.
No. D14JP007N) into Kinase base buffer (50 mM HEPES, pH 7.5; 0.0015% Brij-35; 0.01% Triton) to prepare 2x enzyme solution, then add 10 µl of 2x enzyme solution to each well of the 384-well assay plate, incubate at room temperature for 10 min.
8) Incubate at 28° C. for specified period of time. Add 40 µl of stop buffer (100 mM HEPES, pH 7.5; 0.015% Brij-35; 0.2% Coating Reagent #3; 50 mM EDTA) to stop reaction.
9) Collect data on Caliper. Convert conversion values to inhibition values.
wherein “max” stands for DMSO control; “min” stands for low control.
Fit the data in XLFit excel add-in version 5.4.0.8 to obtain IC50 values. Equation used is: […]
wherein X means concentration in a format not transformed to logarithms.

The subject of test [1] is LoVo (CCL-229) human colorectal cancer cells. As to the kind of experiment: Tumor cell anti-proliferation assay (CTG assay). It counts as cell-based. The note with it: 96 h incubation, CellTiter-Glo, IC50 (Y=50%). The source says:
Assay 2: Tumor Cell Anti-proliferation Assay (CTG Assay)
Human colorectal cancer cells HT-29 (HTB-38) and LoVo (CCL-229) were selected for the CTG assay, the two cell lines were originally obtained from the American Type Culture Collection (ATCC). Add FBS and appropriate additives into base medium to prepare complete medium, then briefly rinse the cell layer with 0.25% (w/v) Trypsin-0.038% (w/v) EDTA solution to remove all traces of serum that contains trypsin inhibitor, after that, add appropriate volume of Trypsin-EDTA solution to flask and observe cells under an inverted microscope until cell layer is dispersed, at last, add appropriate volume of complete growth medium and aspirate cells by gently pipetting. Collect and count numbers with Vi-cell XR and adjust cell density, seed cells into 96-well opaque-walled clear bottom tissue-culture treated plates in the CO2 incubator for 20-24 hours. All the test compounds will be at 10 mM in DMSO. Compounds are then added to the cell media in 3-fold serial dilutions, the final DMSO concentration is 0.5%. Incubate plates for 96 h at 5% CO2, 37° C. Before the measurement, transfer the appropriate volume of CellTiter-Glo Buffer into the amber bottle containing CellTiter-Glo substrate to reconstitute the lyophilized enzyme/substrate mixture, mix gently, this forms the CellTiter-Glo Reagent (Promega Cat. No. G7573). Equilibrate the plate and its contents to room temperature for approximately 30 minutes, then add 100 µL of CellTiter-Glo Reagent to the assay plate, mix contents for 2 minutes on an orbital shaker to induce cell lysis, incubate at room temperature for 10 minutes to stabilize luminescent signal, at last paste the clear bottom with white back seal and record luminescence with Enspire. IC50 and GI50 values were calculated with XLFit curve fitting software using 4 Parameter Logistic Model Y=Bottom + (Top-Bottom)/(1+(IC50/X)^HillSlope).
The following Table 3 provides the IC50 (Y=50%) values for exemplary compounds of Formula (I).
(In ATP-based viability assays light output follows the ATP content of the culture.)

The IC50 is the concentration that gives 50% inhibition.

T1 sequence (Q13535 whole entry): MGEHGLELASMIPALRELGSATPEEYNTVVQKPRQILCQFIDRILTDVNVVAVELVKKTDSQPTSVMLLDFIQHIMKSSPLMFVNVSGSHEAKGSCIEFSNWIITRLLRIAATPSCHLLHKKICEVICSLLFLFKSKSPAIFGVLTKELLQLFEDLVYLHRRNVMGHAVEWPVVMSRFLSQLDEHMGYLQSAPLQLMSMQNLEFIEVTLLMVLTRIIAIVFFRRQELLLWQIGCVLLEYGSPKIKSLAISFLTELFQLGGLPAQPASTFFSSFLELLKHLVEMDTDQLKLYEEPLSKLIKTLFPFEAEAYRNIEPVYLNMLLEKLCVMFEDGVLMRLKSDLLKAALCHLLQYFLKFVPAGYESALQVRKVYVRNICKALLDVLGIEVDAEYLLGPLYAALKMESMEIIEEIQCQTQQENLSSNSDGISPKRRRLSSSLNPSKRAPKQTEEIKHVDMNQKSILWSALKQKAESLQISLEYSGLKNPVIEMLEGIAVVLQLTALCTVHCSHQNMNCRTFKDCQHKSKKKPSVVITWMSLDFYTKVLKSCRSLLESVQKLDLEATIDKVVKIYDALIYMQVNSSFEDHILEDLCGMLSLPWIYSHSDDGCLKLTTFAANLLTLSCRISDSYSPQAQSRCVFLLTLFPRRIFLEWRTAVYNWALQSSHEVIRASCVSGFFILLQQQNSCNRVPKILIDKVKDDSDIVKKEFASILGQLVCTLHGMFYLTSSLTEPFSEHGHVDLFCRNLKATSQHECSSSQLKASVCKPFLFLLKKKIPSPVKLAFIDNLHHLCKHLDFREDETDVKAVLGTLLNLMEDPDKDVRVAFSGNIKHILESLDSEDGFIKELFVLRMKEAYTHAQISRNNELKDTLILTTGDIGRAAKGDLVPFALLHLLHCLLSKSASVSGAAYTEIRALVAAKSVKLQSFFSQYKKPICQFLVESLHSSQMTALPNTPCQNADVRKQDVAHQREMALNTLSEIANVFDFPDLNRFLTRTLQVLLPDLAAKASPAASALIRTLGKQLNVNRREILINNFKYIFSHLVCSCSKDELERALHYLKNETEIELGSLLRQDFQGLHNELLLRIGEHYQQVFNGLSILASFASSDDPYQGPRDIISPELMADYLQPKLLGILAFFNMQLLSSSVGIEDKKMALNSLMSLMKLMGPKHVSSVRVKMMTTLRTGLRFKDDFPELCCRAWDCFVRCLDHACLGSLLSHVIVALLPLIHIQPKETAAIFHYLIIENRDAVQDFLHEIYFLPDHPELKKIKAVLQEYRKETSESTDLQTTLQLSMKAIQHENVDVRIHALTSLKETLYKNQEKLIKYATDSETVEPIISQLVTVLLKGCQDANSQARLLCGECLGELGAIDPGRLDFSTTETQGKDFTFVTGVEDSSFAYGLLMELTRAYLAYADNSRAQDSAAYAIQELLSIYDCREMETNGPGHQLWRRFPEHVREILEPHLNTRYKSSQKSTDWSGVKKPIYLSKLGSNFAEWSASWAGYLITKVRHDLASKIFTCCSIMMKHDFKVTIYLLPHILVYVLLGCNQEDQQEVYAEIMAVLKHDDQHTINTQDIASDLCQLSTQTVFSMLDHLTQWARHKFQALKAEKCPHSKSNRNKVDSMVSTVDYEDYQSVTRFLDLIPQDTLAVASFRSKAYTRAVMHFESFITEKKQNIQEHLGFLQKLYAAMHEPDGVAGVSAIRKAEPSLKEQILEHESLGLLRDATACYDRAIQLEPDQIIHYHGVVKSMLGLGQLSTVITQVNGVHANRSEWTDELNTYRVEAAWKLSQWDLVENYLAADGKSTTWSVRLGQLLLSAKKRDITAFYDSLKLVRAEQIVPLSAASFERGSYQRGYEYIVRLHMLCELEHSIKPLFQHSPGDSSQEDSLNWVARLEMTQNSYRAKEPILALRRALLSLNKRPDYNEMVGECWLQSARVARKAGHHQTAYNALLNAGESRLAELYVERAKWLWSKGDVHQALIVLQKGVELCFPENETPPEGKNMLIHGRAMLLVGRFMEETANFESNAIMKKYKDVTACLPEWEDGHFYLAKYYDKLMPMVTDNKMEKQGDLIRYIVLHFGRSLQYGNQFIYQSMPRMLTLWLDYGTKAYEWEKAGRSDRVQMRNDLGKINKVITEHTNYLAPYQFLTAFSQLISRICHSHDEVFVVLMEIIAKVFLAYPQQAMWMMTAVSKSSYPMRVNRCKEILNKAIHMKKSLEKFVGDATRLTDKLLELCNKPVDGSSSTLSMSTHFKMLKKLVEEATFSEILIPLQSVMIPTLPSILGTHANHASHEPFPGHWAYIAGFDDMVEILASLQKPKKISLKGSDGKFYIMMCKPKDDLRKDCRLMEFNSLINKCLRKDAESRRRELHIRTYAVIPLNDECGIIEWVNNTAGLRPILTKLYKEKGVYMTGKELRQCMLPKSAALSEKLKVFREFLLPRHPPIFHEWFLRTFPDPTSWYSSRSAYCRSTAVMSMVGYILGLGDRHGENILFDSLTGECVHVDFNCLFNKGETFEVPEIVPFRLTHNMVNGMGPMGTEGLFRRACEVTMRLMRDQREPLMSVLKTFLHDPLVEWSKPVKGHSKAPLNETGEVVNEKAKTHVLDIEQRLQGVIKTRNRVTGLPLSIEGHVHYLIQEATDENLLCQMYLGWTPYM
T1 sequence (Q8WXE1 whole entry partner): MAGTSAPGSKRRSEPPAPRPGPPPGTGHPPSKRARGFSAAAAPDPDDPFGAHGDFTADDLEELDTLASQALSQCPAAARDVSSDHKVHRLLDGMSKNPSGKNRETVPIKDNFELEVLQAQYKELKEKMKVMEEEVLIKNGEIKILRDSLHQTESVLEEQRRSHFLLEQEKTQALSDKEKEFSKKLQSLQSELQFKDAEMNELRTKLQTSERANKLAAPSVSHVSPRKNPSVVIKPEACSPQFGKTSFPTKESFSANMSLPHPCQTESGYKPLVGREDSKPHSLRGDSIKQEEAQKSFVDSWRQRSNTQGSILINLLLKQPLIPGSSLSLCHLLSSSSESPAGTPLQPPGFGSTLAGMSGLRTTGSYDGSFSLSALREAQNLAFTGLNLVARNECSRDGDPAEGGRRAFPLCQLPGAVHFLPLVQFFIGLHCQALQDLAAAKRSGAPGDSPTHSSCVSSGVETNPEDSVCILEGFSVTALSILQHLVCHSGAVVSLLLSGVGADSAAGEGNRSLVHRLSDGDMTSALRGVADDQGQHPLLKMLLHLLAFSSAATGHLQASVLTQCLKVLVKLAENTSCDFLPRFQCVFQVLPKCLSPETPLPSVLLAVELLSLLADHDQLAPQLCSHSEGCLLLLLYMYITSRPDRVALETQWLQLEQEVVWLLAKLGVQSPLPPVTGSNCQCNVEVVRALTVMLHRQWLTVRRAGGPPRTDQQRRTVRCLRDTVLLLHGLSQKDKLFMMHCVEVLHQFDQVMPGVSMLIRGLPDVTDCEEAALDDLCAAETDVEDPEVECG

With `C[C@@H]1COCCN1c1cc(C2(S(C)(=O)=O)CC2)cc(Nc2ccn[nH]2)n1` [Compound 1, (R)-6-(3-methylmorpholino)-4-(1-(methylsulfonyl)cyclopropyl)-N-(1H-pyrazol-5-yl)pyridin-2-amine], the figures for the IC50 (on ATR kinase; in test [1]) were 0.0144 µM and 0.334 µM, respectively.
On the same counts, the results for `Cc1cnn(C)c1-c1cc(Nc2ccn[nH]2)nc(N2CCOC[C@H]2C)c1` [Compound 4, (R)-4-(1,4-dimethyl-1H-pyrazol-5-yl)-6-(3-methylmorpholino)-N-(1H-pyrazol-5-yl)pyridin-2-amine] are 0.0163 µM and 0.385 µM.
For `C[C@@H]1COCCN1c1cc(C2(S(C)(=O)=O)CC2)nc(Nc2ccn[nH]2)n1` [Compound 5, (R)-4-(3-methylmorpholino)-6-(1-(methylsulfonyl)cyclopropyl)-N-(1H-pyrazol-5-yl)pyrimidin-2-amine], the IC50 in test [1] came out at 0.653 µM.
As for `Cc1cc(Nc2nc(N3CCOC[C@H]3C)cc(C3(S(C)(=O)=O)CC3)n2)[nH]n1` [Compound 6, 4-(1-methanesulfonylcyclopropyl)-N-(3-methyl-1H-pyrazol-5-yl)-6-[(3R)-3-methylmorpholin-4-yl]pyrimidin-2-amine], the results for the IC50 (on ATR kinase; in test [1]) were 0.016 µM and 0.401 µM, respectively.
On the same counts, the results for `C[C@@H]1COCCN1c1cc(C(C)(C)S(C)(=O)=O)nc(Nc2ccn[nH]2)n1` [Compound 7, (R)-4-(3-methylmorpholino)-6-(2-(methylsulfonyl)propan-2-yl)-N-(1H-pyrazol-5-yl)pyrimidin-2-amine] are 0.028 µM and 0.872 µM.
With `Cc1cc(Nc2nc(N3CCOC[C@H]3C)cc(C(C)(C)S(C)(=O)=O)n2)[nH]n1` [Compound 8, (R)-N-(3-methyl-1H-pyrazol-5-yl)-4-(3-methylmorpholino)-6-(2-(methylsulfonyl)propan-2-yl)pyrimidin-2-amine], the IC50 stood at 0.0132 µM on ATR kinase and 0.398 µM in test [1].
On the same counts, the results for `Cc1cc(Nc2nc(N3CCOC[C@H]3C)cc(C3(C#N)CC3)n2)[nH]n1` [Compound 9, (R)-1-(2-((3-methyl-1H-pyrazol-5-yl)amino)-6-(3-methylmorpholino)pyrimidin-4-yl)cyclopropanecarbonitrile] are 0.022 µM and 0.538 µM.
Turning to `Cc1cc(Nc2nc(N3CCOC[C@H]3C)cc(C(C)(C)C#N)n2)[nH]n1` [Compound 10, (R)-2-methyl-2-(2-((3-methyl-1H-pyrazol-5-yl)amino)-6-(3-methylmorpho-lino)pyrimidin-4-yl)propanenitrile], the 50% inhibitory concentration (IC50) is 0.01 µM on ATR kinase and 0.263 µM in test [1].
As to `C[C@@H]1COCCN1c1cc(C2(S(C)(=O)=O)CCOCC2)nc(Nc2ccn[nH]2)n1` [Compound 11, (R)-4-(3-methylmorpholino)-6-(4-(methylsulfonyl)tetrahydro-2H-pyran-4-yl)-N-(1H-pyrazol-5-yl)pyrimidin-2-amine], in test [1], the IC50 was found to be 1.31 µM.
For the compound `Cc1cc(Nc2nc(N3CCOC[C@H]3C)cc(C3(S(C)(=O)=O)CCOCC3)n2)[nH]n1` [Compound 12, (R)-N-(3-methyl-1H-pyrazol-5-yl)-4-(3-methylmorpholino)-6-(4-(methylsulfonyl)tetrahydro-2H-pyran-4-yl)pyrimidin-2-amine], the results for the IC50 (at ATR kinase; in test [1]) were 0.013 µM and 0.611 µM, respectively.
`C[C@@H]1COCCN1c1cc(N(C)S(C)(=O)=O)cc(Nc2ccn[nH]2)n1` [Compound 13, (R)-N-(2-((1H-pyrazol-5-yl)amino)-6-(3-methylmorpholino)pyridin-4-yl)-N-methylmethanesulfonamide]: the IC50 in test [1] came to 0.807 µM.
In the case of `Cc1cnn(C)c1-c1cc(N2CCOC[C@H]2C)nc(Nc2ccn[nH]2)c1CO` [Compound 15, (R)-(2-((1H-pyrazol-5-yl)amino)-4-(1,4-dimethyl-1H-pyrazol-5-yl)-6-(3-methylmorpholino)pyridin-3-yl)methanol], in test [1], the IC50 came to 0.515 µM.
Take `C[C@@H]1COCCN1c1cc(C2(S(C)(=O)=O)CC2)c(CO)c(Nc2ccn[nH]2)n1` [Compound 17, (R)-(2-((1H-pyrazol-5-yl)amino)-6-(3-methylmorpholino)-4-(1-(methylsulfo-nyl)cyclopropyl)pyridin-3-yl)methanol]: it took 0.594 µM to reach half-maximal inhibition in test [1] (IC50).
With `Cc1cc(Nc2cc(C3(S(C)(=O)=O)CC3)cc(N3CCOC[C@H]3C)n2)[nH]n1` [Compound 19, 4-(1-methanesulfonylcyclopropyl)-N-(3-methyl-1H-pyrazol-5-yl)-6-[(3R)-3-methylmorpholin-4-yl]pyridin-2-amine], the IC50 at ATR kinase was found to be 0.0103 µM; in test [1], 0.225 µM.
With `Cc1noc(C)c1-c1cc(Nc2ccn[nH]2)nc(N2CCOC[C@H]2C)c1` [Compound 22, (R)-4-(3,5-dimethylisoxazol-4-yl)-6-(3-methylmorpholino)-N-(1H-pyrazol-5-yl)pyridin-2-amine], in test [1], the IC50 worked out at 0.192 µM.
The same measure, in the same setting: then `Cc1cnn(C)c1-c1cc(N2CCOC[C@H]2C)nc(Nc2ccn[nH]2)c1F` [Compound 33, (R)-4-(1,4-dimethyl-1H-pyrazol-5-yl)-3-fluoro-6-(3-methylmorpholino)-N-(1H-pyrazol-5-yl)pyridin-2-amine], with 0.842 µM.
`C[C@@H]1COCCN1c1cc(C2(S(C)(=O)=O)CC2)c(F)c(Nc2ccn[nH]2)n1` [Compound 34, (R)-3-fluoro-6-(3-methylmorpholino)-4-(1-(methylsulfonyl)cyclopropyl)-N-(1H-pyrazol-5-yl)pyridin-2-amine] registered an IC50 in test [1] of 0.442 µM.
In test [1], `Cc1cc(Nc2cc(C3(S(C)(=O)=O)CCOCC3)cc(N3CCOC[C@H]3C)n2)[nH]n1` [Compound 36, (R)-N-(3-methyl-1H-pyrazol-5-yl)-6-(3-methylmorpholino)-4-(4-(methylsulfonyl)tetrahydro-2H-pyran-4-yl)pyridin-2-amine] returned an IC50 of 0.966 µM.
Still for that read-out and setting: with `C[C@@H]1COCCN1c1cc(C2(C#N)CCCC2)cc(Nc2ccn[nH]2)n1` [Compound 37, 1-{2-[(3R)-3-methylmorpholin-4-yl]-6-[(1H-pyrazol-5-yl)amino]pyridin-4-yl}cyclopentane-1-carbonitrile] the figure was 0.8 µM; with `C[C@@H]1COCCN1c1cc(C2(C#N)CCOCC2)cc(Nc2ccn[nH]2)n1` [Compound 39, (R)-4-(2-((1H-pyrazol-5-yl)amino)-6-(3-methylmorpholino)pyridin-4-yl) tetrahydro-2H-pyran-4-carbonitrile], 0.844 µM.
Same read-out and setting: with `C[C@@H]1COCCN1c1cc(C2(C#N)CCCC2)nc(Nc2ccn[nH]2)n1` [Compound 40, (R)-1-(2-((1H-pyrazol-5-yl)amino)-6-(3-methylmorpholino)pyrimidin-4-yl) cyclopentane-1-carbonitrile] the figure was 0.698 µM; with `C[C@@H]1COCCN1c1cc(C2(S(C)(=O)=O)CCOCC2)cc(Nc2ccn[nH]2)n1` [Compound 45, (R)-6-(3-methylmorpholino)-4-(4-(methylsulfonyl)tetrahydro-2H-pyran-4-yl)-N-(1H-pyrazol-5-yl)pyridin-2-amine], 1.01 µM.
Same read-out and setting: then `Cc1cc(Nc2cc(-c3c(C)cnn3C)cc(N3CCOC[C@H]3C)n2)[nH]n1` [Compound 46, (R)-4-(1,4-dimethyl-1H-pyrazol-5-yl)-N-(3-methyl-1H-pyrazol-5-yl)-6-(3-methylmorpholino)pyridin-2-amine], with 0.41 µM; and `Cc1cc(Nc2cc(-c3c(C)noc3C)cc(N3CCOC[C@H]3C)n2)[nH]n1` [Compound 47, (R)-4-(3,5-dimethylisoxazol-4-yl)-N-(3-methyl-1H-pyrazol-5-yl)-6-(3-methylmorpholino)pyridin-2-amine], with 0.39 µM.

The values are drawn from US20230339927A1, “ATR INHIBITORS AND USES THEREOF” (ANTENGENE DISCOVERY LIMITED, priority 2020, published 2023).
